Source: article PMC12084297, “Cytoplasmic connexin43-microtubule interactions promote glioblastoma stem-like cell maintenance and tumorigenicity” (Cell Death & Disease, 2025)

Tests used:
Notch1 = Notch1 protein expression, immunoblot, VTC-001 GSCs; type: cell-based, human; conditions: 50 μM, 24 h
Method: Cells were lysed in RIPA buffer (0.1% sodium dodecyl sulphate, 50 mM Tris pH 7.4, 150 mM NaCl, 1 mM EDTA, 1% Triton X-100, 1% deoxycholic acid, 200 μM Na3VO4, and 1 mM NaF) supplemented with Halt^TM Protease and Phosphatase Inhibitor Cocktail (Thermo Fisher). Lysates were sonicated prior to centrifugation at 4 °C for 20 min at 10,000 x g. Protein concentration was quantified using the DC protein assay (Bio-Rad Laboratories) and a standard curve obtained with increasing concentrations of Bovine Serum Albumin (BSA; Fisher Scientific). Protein samples were normalized to 20 μg total protein per lane and resolved by SDS-PAGE electrophoresis. 4X Bolt LDS sample buffer supplemented with 400 mM DTT (final concentration 1X Bolt LDS with 100 mM DTT) was added to samples before heating at 70 °C for 10 min. SDS-PAGE was run using NuPAGE Bis-Tris 4%–12% gradient gels (Thermo Fisher) with MES or MOPS running buffer according to manufacturer’s instructions. Spectra™ Multicolor Protein Ladder (Thermo Fisher) or Precision Plus Protein™ Kaleidoscope™ Prestained Protein Standards (Bio-Rad Laboratories) were included as protein ladders on the same gels. […] Membranes were imaged on a ChemiDoc™ imaging system, and analyzed with Image Lab software (Bio-Rad Laboratories). […]

HEY1 mRNA = HEY1 mRNA by RT-qPCR, VTC-037 GSCs; type: cell-based, human; conditions: 50 μM, 24 h, compared to JM2-scrambled
Method: (§1) RNA was extracted using the PureLink^TM RNA mini extraction kit (Thermo Fisher) and on-column DNA digestion was completed using PureLink^TM DNase according to the manufacturer’s instructions. RNA was reverse transcribed to generate cDNA using the iScript^TM Reverse Transcription SuperMix for RT-qPCR kit (Bio-Rad Laboratories). Real-time PCR was performed using the SYBR select Master Mix for CFX (Thermo Fisher) in hard-shell 96-well PCR plates (Bio-Rad Laboratories) on a CFX Connect Real Time System (Bio-Rad Laboratories). Primer sequences used were: hNOTCH1_Fwd: 5’-CGCACAAGGTGTCTTCCAG-3’; hNOTCH1_Rev: 5’-CGGCGTGTGAGTTGATGA-3’; hHES1_Fwd: 5’-GGCTGGAGAGGCGGCTAA-3’; hHES1_Rev: 5’-[…]-3’; hHEY1_Fwd: 5’-[…]-3’; hHEY1_Rev: 5’-[…]-3’.

LN229/GSCs = experiment: MTS survival, LN229/GSCs; type: cell-based, human; conditions: 100 µM, 4 days
Method: (§2) Cells were plated in 96-well plates (2000–5000 cells per well) and treated the following day with TMZ (10, 50, or 100 μM), antennapedia, JM2-scrambled, or JM2 (10, 50, or 100 μM). After 4 days, cell viability was monitored following addition of MTS reagent (Promega) according to manufacturer’s instructions. The absorbance at 490 nm was measured using a SpectraMax i3 or iD3 microplate reader (Molecular Devices). For the caspase 3/7 activity assay, cells were plated in 96-well plates (2000 cells per well) and treated with TMZ or peptides as described above. The activity of caspase 3/7 was measured after 48 h using the Caspase-Glo® 3/7 assay (Promega) following the manufacturer’s instructions. Fold change of caspase 3/7 activity was defined as the ratio of caspase 3/7 luminescence in treated cells compared to controls.

PDX GBM22 cells = experiment: Gliosphere formation assay, PDX GBM22 cells; type: cell-based, human; conditions: 100 μM every other day, 2 weeks
Method: (§3) GSCs and PDX GBM22 cells were plated as single cell suspension in low-attachment 96-well plates (GSCs: 100–500 cells per well; GBM22 cells: 500–2000 cells per well), using methods similar to those reported previously. Cells were then treated with peptides every other day. 2 weeks later, gliospheres were observed using phase contrast microscopy on a Revolve microscope (Echo Laboratories). The number of gliospheres was then determined, while the gliosphere size was assessed by diameter measurement. To evaluate stem cell frequency in GSCs, gliosphere formation assay was performed with limiting cell dilutions with cells plated at varying densities in low-attachment 96-well plates. Cells were treated with peptides every other day, and after 2 weeks, gliosphere-positive wells were observed and scored using phase contrast microscopy on a Revolve microscope. The stem cell frequency was analyzed using the online data analysis program ELDA (Extreme Limiting Dilution Analysis).

HES1 mRNA = HES1 mRNA by RT-qPCR, VTC-037 GSCs; type: cell-based, human; conditions: 50 μM, 24 h, compared to antennapedia alone or JM2-scrambled
Method: as §1

VTC-037 GSCs = experiment: Peptide uptake by confocal Z-stack with WGA, VTC-037 GSCs; type: in vitro ADME, human; conditions: 50 μM, 24 h, WGA membrane label
normal human astrocytes = experiment: Caspase 3/7 activity, human astrocytes; type: cell-based; conditions: 100 μM, 2 days
Method: as §2

VTC-001 GSCs = experiment: Gliosphere formation assay, VTC-001 GSCs; type: cell-based, human; conditions: VTC-001, 10, 50 or 100 μM every other day, 2 weeks
Method: as §3

VFFKGVKDRVKGRSD [JM2]
Notch1 protein expression (Notch1): significantly decreased Notch1 expression at the protein level | Hey1 mRNA expression (HEY1 mRNA): significantly decreased the expression of Notch downstream targets Hes1 and Hey1 at the transcription level | LN229/GSC survival (MTS) (LN229/GSCs): significantly decreased LN229/GSC survival after 4 days | GBM22-derived gliosphere size (diameter) (PDX GBM22 cells; n = 5): significantly decreases GBM22-derived gliosphere size | GBM22-derived gliosphere number (PDX GBM22 cells; n = 6): significantly decreases GBM22-derived gliosphere size as assessed by diameter measurement (Fig. 8C), and number | Hes1 mRNA expression (HES1 mRNA): significantly decreased the expression of Notch downstream targets Hes1 and Hey1 at the transcription level | Peptide enrichment within cells (Z-stack 3D projection) (VTC-037 GSCs): enrichment of JM2 (red) within cells | Caspase 3/7 activity in normal human astrocytes (normal human astrocytes): No effect on caspase 3/7 | GSC-dependent gliosphere formation (VTC-001 GSCs): inhibits VTC-001, VTC-034, and VTC-037 GSC-dependent gliosphere formation in a dose-dependent manner | Gliosphere size (diameter) (VTC-001 GSCs; n = 4): significant decrease in gliosphere size | Gliosphere number (VTC-001 GSCs; n = 6): significant decrease in gliosphere size as assessed by diameter measurement (Fig. 6B), and number
